Reference: patent publication US20230321063A1, “COMPOSITIONS AND METHODS TO REDUCE NEUROINFLAMMATION” (Seattle Children's Hospital d/b/a Seattle Children's …, priority 2020, published 2023)
“Also recorded” adds a separate entry of the source.

What was measured:
[1] = tested on: Ndufs4(KO) mouse model of LS; test: Survival studies and overall disease course in Ndufs4(KO) mice; format: in vivo; settings: for impact on disease (overall) / disease or survival: Ndufs4(KO) mice; for survival: Ndufs4(KO) mice vs untreated
Method: (§1) Ndufs4(+/−) mice were bred to produce Ndufs4(KO) (Ndufs4(−/−)) offspring. Mice were weaned at 20-21 days of age. Ndufs4(KO) animals were housed with a minimum of one control littermate for warmth and stimulation. Mice were weighed, and health assessed, a minimum of 3 times per week, every other day (daily for IP injected mice, see herein). Where longitudinal blood point-of-care data was collected, this was performed during these health checks. Wetted chow in a dish on the bottom of each cage, and in-cage water bottles, were provided to all cages housing Ndufs4(KO) mice following the onset of disease so that the ability to find or reach food or water was not a limiting factor for survival.
Doses of each drug was based on published data for use in animals. […] Blood and tissue concentrations reached biologically relevant levels for each of the tested inhibitors.
Pharmacologic interventions and chow formulation. Standard mouse chow was ground to a power and mixed with drugs at the doses desired (see FIGS. 4A-4L). 300 mL of 1% agar melted in sterile water was added per kilogram of powdered chow and the mixture was pelleted and baked at 37° C. for 3-5 hours to dry. Pellets were then stored at 4° C. for short term (up to 90 days) or −20° C. for long-term (up to 6 months) storage. It was previously shown that this processing had no impact on animal health or survival (Johnson et al. Front Genet. 2015; 6:247). […]
To determine whether the benefits of mTOR inhibition in Ndufs4(KO) model result from disruption of PI3K mediated signaling, animals were treated from weaning (post-natal day 21, P21) with potent, orally available, isoform specific inhibitors of the catalytic subunits of PI3K: BYL719, GSK2636771, CAL-101, and IPI-549, inhibitors of p110α, p110β, p110δ, and p110γ, respectively.

[2] = tested on: Ndufs4(KO) mice; test: Body weight, growth and cachexia onset; format: in vivo, mouse
Method: as §1
Cachexia in FIG. 4H and FIG. 6E is the day of life when weight peaks prior to the progressive weight loss which occurs in untreated Ndufs4(KO) animals.

[3] = tested on: Ndufs4(KO) mice; test: Longitudinal assessment of neurological disease symptoms (clasping, ataxia, circling); format: in vivo, mouse; settings: Ndufs4(KO) mice vs untreated
Method: Longitudinal assessments of neurological disease symptoms. Clasping, ataxia, and circling were assessed by visual scoring, as previously described. As disease progresses in the Ndufs4(KO) mice animals display intermittent/transient improvement of symptoms. […] For observational assessments, lab-wide quality control discussions occurred frequently to ensure consistency between technicians/researchers. Technicians contributed equally to each treatment group to minimize any potential bias between individuals.

[4] = tested on: control and Ndufs4(KO) mice; test: Glucose tolerance test (GTT) and glucose induced lactate test; format: in vivo, mouse; settings: 2 g/kg glucose IP; pexidartinib 300 mg/kg/d in chow, IPI-549 100 mg/kg/d in chow, rapamycin (ABI-009) 8 mg/kg/d IP
From the text: (§2) Point-of-care glucose and lactate testing. Blood glucose and lactate measurements were collected using point-of-care meters (Prodigy Autocode® glucose meter, product #51850-3466188, Prodigy® Diabetes Care, LLC, Charlotte, NC; lactate assay meter, product #40828, Nova Biomedical, Waltham, MA) and the tail-prick method, as previously described (Stokes et al. Elife 2021; 10:e65400).
Glucose tolerance test (GTT) and glucose induced lactate test. Prior to performing the GTT, mice were fasted for 4 hours, from 10 AM-2 PM. The fasting duration was limited to 4 hours given the sensitivity of untreated Ndufs4(KO) animals to hypoglycemia and related sequelae (dysregulation of body temperature, hypoglycemia induced seizure, etc.). For the ABI-009 cohort, mice received their daily ABI-009 treatment at the start of this fasting period. At the end of the 4 hour fast, baseline blood glucose and lactate values were collecting using point-of-care meters and the tail-prick method. Mice were then injected by IP with 2 g/kg dextrose (10 microliters/gram body weight of 200 mg/mL glucose in 1×PBS, 0.2 micron sterile filtered) using an insulin syringe (31-gauge, 6 mm length, 3/10 cc, BD Veo Ultra-Fine needle). Glucose and lactate levels were measured using a minimally invasive tail-prick method at designated timepoints post-injection.

[5] = tested on: Ndufs4(KO) mice; test: Point-of-care blood glucose by age; format: in vivo, mouse
From the text: as §2

[6] = tested on: Ndufs4(KO) mice; test: Rotarod assay; format: in vivo, mouse; settings: latency to fall up to 10 min, 6 rpm
Method: Rotarod and rotarod seizures. Rotarod assays were performed using a Med Associates Inc. (Fairfax, VT) ENV-571M single lane rotarod with a black mat installed in the floor of the lane to reduce visibility of the bottom. Assays were performed by placing animals onto an already rotating rod and timing latency to fall, with a steady rotation speed set to 6 rpm (controlled by attached laptop and Med Associates software). The maximum time of each trial was 10 min, with the trial ending at that time if mice were still on the rotarod. For each assay, three trials were performed, with a minimum of 5 min between each assay. The best of the three trials was reported for the rotarod data. As detailed in the text and figure legends, rotarod was performed each 10 days of age from P30; mice in a given age group were the reported age +/−1 day.

[7] = tested on: Ndufs4(KO) mice; settings: rapamycin at doses sufficient to attenuate disease; Johnson et al.; cited from earlier work

| SMILES | impact on disease (overall) / disease or survival [1] | survival [1] | growth and body size ([2]; compared with mTOR inhibition) | onset of symptoms: forelimb clasping, ataxia, and circling [3] | median survival ([1]; Ndufs4(KO) mice treated from weaning (P21) via chow, untreated 60) | blood lactate spike in response to a glucose bolus [4] | cachexia [2] | hypoglycemia (blood glucose) [5] | performance on rotarod assay [6] | developmental weight gain and maximum body size [7] |
| --- | --- | --- | --- | --- | --- | --- | --- | --- | --- | --- |
| Cc1nc(NC(=O)N2CCC[C@H]2C(N)=O)sc1-c1ccnc(C(C)(C)C(F)(F)F)c1 [BYL719, (2S)-1-N-[4-methyl-5-[2-(1,1,1-trifluoro-2-methylpropan-2-yl)pyridin-4-yl]-1,3-thiazol-2-yl]pyrrolidine-1,2-dicarboxamide] | only modestly impacting disease | extension of survival | extremely small body size; also recorded: severely impaired growth and size | statistically significant delay in symptom onset |  |  |  |  |  |  |
| C[C@H](NC(=O)c1c(N)nn2cccnc12)c1cc2cccc(C#Cc3cnn(C)c3)c2c(=O)n1-c1ccccc1 [IPI-549, 2-amino-N-[(1S)-1-[8-[2-(1-methylpyrazol-4-yl)ethynyl]-1-oxo-2-phenylisoquinolin-3-yl]ethyl]pyrazolo[1,5-a]pyrimidine-3-carboxamide] | attenuated disease | markedly extended survival |  | significantly delayed the onset | 110 days | similarly prevented the lactate sequelae | prevented | prevented | improved |  |
| CO[C@H]1C[C@@H]2CC[C@@H](C)[C@@](O)(O2)C(=O)C(=O)N2CCCC[C@H]2C(=O)O[C@H]([C@H](C)C[C@@H]2CC[C@@H](O)[C@H](OC)C2)CC(=O)[C@H](C)/C=C(\C)[C@@H](O)[C@@H](OC)C(=O)[C@H](C)C[C@H](C)/C=C/C=C/C=C/1C [rapamycin] |  |  |  |  |  |  |  |  |  | significant reductions |
